Here are results for 2 molecules from patent US9879243B2, “Culture medium for cell growth and transfection” (LIFE TECHNOLOGIES CORPORATION, priority 2001, dated 2018).

Holding throughout (assay type): cell-based, human
In experiment [1] the test system is 293 cells. Description: β-galactosidase expression after transfection (pCMV-SPORT-β-gal, LIPOFECTAMINE 2000) of 293 cells in monolayer culture, 24-well plates. As to conditions: Table 8, replacement compounds 25 μM in test media, 24 hrs post-transfection. Here is the method: When cultured in suspension, cells were split to 3×10^5 viable cells per ml at each passage. On the week of transfection cells were seeded at 3×10^5 viable cells per ml. After ˜48 hrs of growth (day 2) cells were vortexed for 30 seconds and counted and appropriate volumes used for transfection as described in procedures below.
In addition, the base media comprises 2.4 g/L NaHCO3, 2.98 g/L Hepes, 4 mM L-glutamine and 3 ml/L PLURONIC F-68 (Invitrogen Corp., Carlsbad, Calif.).
The osmolarity is adjusted to from about 275-310 mOsm, preferably about 280 mOsm and the pH is adjusted to from about 7.0 to about 7.45 preferably about 7.4 respectively.
Three wells were set up for each treatment. A volume of media corresponding to 3×10^6 viable cells was centrifuged. The supernatant was removed and the cells re-suspended in 600 μl test media. Each well of a 24 well plate received 200 μl of the re-suspended cells.
To prepare the nucleic acid for the transfection experiments, 93 μl test media+3 μl DNA+24 μl LIPOFECTAMINE 2000 were combined in a microfuge tube and complexed for 30 minutes. A 40 μl aliquot of complex was added to each well. 250 μl test media was added to each well five hours after addition of complex. The final cell concentration was 1×10^6 viable cells per well; the final DNA concentration was 1 μg per 1×10^6 viable cells and the final LIPOFECTAMINE 2000 concentration was 8 μl per 1×10^6 viable cells.
24 hrs post-transfection, samples were collected for β-galactosidase quantitation. The contents of duplicate wells were pooled (i.e. ˜2×10^6 cells for the assay) for each sample and transferred to a microfuge tube. The cells were centrifuged, the supernatant was removed and the cells were re-suspended in 1 ml of D-PBS. The cells were pelleted a second time and re-suspended in 1 ml of D-PBS. The samples were then stored at −70° C. Prior to the assay for β-galactosidase, samples were freeze-thawed a total of five times.
293 cells were grown in monolayer culture in the presence of the various replacement compounds indicated and transfection experiments performed as described above. The results are shown in Table 8 and the values are β-galactosidase activity expressed as nanograms of β-galactosidase per 2×10^6 cells. A comparison was made between the transfection efficiency of DNA complexes formed in D-MEM medium and DNA complexes formed in test medium. […]
(§1) For cells transfected in 24-well plates, cells densities used were 1×10^6 viable cells per well.

For experiment [2], the system named is 293 cells. Kind of experiment: X-gal in situ staining, % transfection efficiency, 293 cells in 24-well plates. The conditions noted are these: Example 7. The procedure:
The third well of each treatment was used for in situ staining for β-galactosidase activity (i.e., ˜1×10^6 cells).
The transfection efficiency of cells grown in the presence of ZnSO4+ chelating agent as a replacement for insulin was tested at various concentrations of chelator and ZnSO4 and the results are shown in Table 10. Cells were prepared in monolayer culture in base medium containing the indicated supplements and transfected and assayed as described above.
293 cells were grown in monolayer culture in base media supplemented with the indicated chelator and metal salt at the indicated concentrations. The concentration of the chelator is given in μmoles/l and the concentration of the metal salt is given in μgrams/ml. […] The concentration of the cells in the media was 1×10^6 cell/ml, the concentration of DNA used was 1 μg DNA/10^6 cells, the concentration of LIPOFECTAMINE 2000 used was 8 μl/10^6 cells.
as §1

The subject of experiment [3] is 293 cells. Description: Growth and adaptation of 293 cells to test media before transfection. As to conditions: for support of growth at the ZnSO4 concentrations tested: Example 7, ethyl maltol 50 μM, 2-hydroxypyridine 25 μM, DPTA.FeSO4 50 μM, ZnSO4 0.5×-5×.
Protocol: 293 cells were grown in monolayer culture in base medium supplemented with the indicated replacement compounds at the concentrations specified in Table 9.

On to `CCc1occc(=O)c1O` [2-Ethyl-3-Hydroxy-4-Pyrone], for which, in experiment [1], the “β-galactosidase activity; D-MEM used for complexing, Test media to re-suspend cells” value was 378 nanograms of β-galactosidase per 2×10^6 cells; the “β-galactosidase activity; Test Media used for complexing and to re-suspend cells” value is reported as 1827 nanograms of β-galactosidase per 2×10^6 cells. For the same molecule, in experiment [2] (media with 1× ZnSO4), the “X-gal staining transfection efficiency” value is approximately 40%. In experiment [2] (media with insulin), the “X-gal staining transfection efficiency” value is 50-60%. Also, the support of growth result in experiment [3] (Example 6, 100 μM) is listed as “did not support growth”. Further, in experiment [3], the “support of growth at the ZnSO4 concentrations tested” value was “supported growth at all concentrations of ZnSO4 tested”.

Take “Diethylenetriamine Penta-Acetic Acid•Ferrous Sulfate”: in experiment [1], the “β-galactosidase activity; D-MEM used for complexing, Test media to re-suspend cells” value is given as 234 nanograms of β-galactosidase per 2×10^6 cells; the “β-galactosidase activity; Test Media used for complexing and to re-suspend cells” value was 720 nanograms of β-galactosidase per 2×10^6 cells. Further, in experiment [3] (Example 6, in combination with ZnSO4 instead of insulin), the “growth in the presence of ZnSO4” value was “acceptable”. Besides, the “support of growth at the ZnSO4 concentrations tested” value in experiment [3] was “supported growth at concentrations of 1×, 2× and 5× ZnSO4, but not at 0.5×”.
